Assay results: US8163939B2, “Ascorbic acid derivative or salt thereof, production method thereof, and cosmetic” (Seikwa Kasei Company, Limited, priority 2007, dated 2012)

Tests used:
B16 melanoma 4A5 cell = assay: Whitening test: theophylline-induced melanine production in B16 melanoma 4A5 cells; assay type: cell-based, mouse; conditions: sample at a concentration of 100 μM or less; theophylline-induced melanine production; 3 days culture; N=4;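 also: grades: ± under 20% + 20-40% ++ 40-70% +++ 70-100% suppression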
Experimental: As a test for a whitening effect, evaluation of the action of B16 melanoma 4A5 cell on theophylline-induced melanine production was carried out on an ascorbic acid derivative of the present invention, according to the following procedure. The same evaluation was carried out also on ascorbic acid, known compounds: ascorbic acid salts, and ascorbic acid derivatives, as comparison. The results are shown in Tables 38 to 40. • (1) B16 mouse melanoma 4A5 strain was sowed onto a 48-well plate at a cell density of 2.0×10^4 cells/well. • (2) Culturing was performed for 24 hours with Dulbecco's Modified Eagle's medium (manufactured by SIGMA. Hereinafter, abbreviated as D-MEM) containing 10% fetal bovine serum (manufactured by Roshe Diagnostics). Then, it was changed to 0.2 mM theophylline and a 10% fetal bovine serum-containing D-MEM which contains a sample of given concentration. • (3) After culturing for 3 days in the co-existence of a sample, the medium was removed using an aspirator. Then, after distilled water was added, cells were broken by an ultrasonic wave. • (4) Thereafter, the amount of protein was determined using BCA protein assay kit (manufactured by PIERCE), and the produced amount of melanine was measured by an alkali solubilizing method. To the cell-destructed solution was added sodium hydroxide so as to give a final concentration of 2N and the mixture was dissolved by heating (60° C., 15 minutes), then, the absorbance at 450 nm was measured using a micro plate reader. The melanine amount was calculated from a calibration curve made using synthetic melanine (SIGMA) as a standard. The melanine amount per unit protein was calculated by dividing the melanine amount by the protein amount. • (5) The melanine production suppressing rate was calculated according to the following formula. Melanine production suppressing rate (%)=[1−(A−B)/(C−B)]×100 [wherein, A represents the melanine amount per unit protein (g/g) in adding a sample, B represents the melanine amount per unit protein (g/g) in the normal group, and C represents the melanine amount per unit protein (g/g) in the control group.]
In the following Tables, the melanine production suppressing rate in measuring a sample at a concentration of 100 μM or less is expressed as described below. The measurement was carried out at N=4.

[1] = test system: Normal human dermal fibroblasts; assay: Collagen production of human fibroblast 2 (100 μM or 500 μM; 2, 4 and 7 days); assay type: cell-based; conditions: for Collagen production amount in comparison with the control group (% value when the control group is 100%): 100 μM or 500 μM (not stated which), average ± standard error, N=4
Experimental: (§1) Normal human dermal fibroblasts were regulated with a 10% (v/v) fetal bovine serum (manufactured by Roshe Diagnostics)-containing D-MEM so as to give a cell density of 2.5×10^4 cells/well, then, pre-incubation for 24 hours was performed on a 96-well plate. After the medium was removed, a sample regulated with a 5% (v/v) fetal bovine serum-containing D-MEM to a concentration of 100 μM was added to each well, then, cultured for 48 hours under 37° C. and 5% CO2. After completion of culturing, the amount of free collagen was measured using Sircol collagen assay kit (manufactured by Biocolor). The measurement was carried out at N=4.
Free collagen was measured under the same conditions as in Test Example 5 excepting that the concentration of each sample was 100 μM or 500 μM and culturing was carried out for 2 days, 4 days and 7 days. The measurement was carried out at N=4, and the average and standard error, in four test examples, of values of the collagen production amount in comparison with the control group (% value when the control group is 100%) are shown in Tables 46 and 47.

[2] = test system: Normal human dermal fibroblasts; assay: Collagen production of human fibroblast (Sircol collagen assay, 100 μM, 48 hours); assay type: cell-based; conditions: cultured 48 hours; for activity at 100 µM: Homo sapiens, Fibroblast, N=4, read-out: Collagen production promoting effect (collagen production amount, % of control group); for Collagen production promoting effect (collagen production amount, % of control group): N=4
Experimental: as §1
The collagen production amount in measuring a sample at a concentration of 100 μM was compared with the control group, and the results thereof (% value when the control group is 100%) are shown in Tables 44 and 45 based on the following standard.

[3] = Stability Test 1: 2% aqueous solution, pH7, room temperature, 4 weeks (residual rate, odor, coloration); assay type: physicochemical
Experimental: Aqueous solutions (2%) of various test samples were adjusted to pH7 with a dilute sodium hydroxide aqueous solution, and charged into 50 mL screw tubes, and the tubes were sealed and stored at room temperature for 4 weeks. Thereafter, HPLC measurement were performed (using liquid chromatography manufactured by Tosoh Corp.) and the residual rate was obtained based on the peak area. The residual rate, odor(odor change) and degree of coloration were evaluated based on the following methods and standards, and the results are shown in Table 41.
◯: 80% or more and less than 90%
Δ: 60% or more and less than 80%
X: 20% or more and less than 60%
It was evaluated according to the following criterion by 10 panelists.
Based on the evaluation results, classification was conducted as shown below.
◯: total point of 10 panelists is 25 or more
Δ: total point of 10 panelists is 16 to 24
X: total point of 10 panelists is 15 or less
3: almost no change as compared with that immediately after preparation
2: coloration is observed as compared with that immediately after preparation
1: intense coloration is observed as compared with that immediately after preparation

[4] = Table 46, culturing period 2 days
[5] = Table 46, culturing period 4 days
[6] = Table 46, culturing period 7 days
[7] = storage period 2 weeks, 10 panelists
[8] = storage period 4 weeks, 10 panelists
[9] = Table 47, culturing period 2 days
[10] = Table 47, culturing period 4 days
[11] = Table 47, culturing period 7 days

Row | Compound | Whitening effect (melanine production suppressing rate) (B16 melanoma 4A5 cell) | Collagen production amount in comparison with the control group (% value when the control group is 100%) [1, 9] [%] | Collagen production amount in comparison with the control group (% value when the control group is 100%) [1, 10] [%] | Collagen production amount in comparison with the control group (% value when the control group is 100%) [1, 11] [%] | Collagen production promoting effect (collagen production amount, % of control group) [2] | also measured
1 | O=C1OC(C(O)CO)C(OCC(O)CO)=C1O (stereo not drawn) [Example 1, 3-O-glyceryl ascorbic acid] | + (20 to 40%:+) | – | – | – | – | Collagen production amount in comparison with the control group (% value when the control group is 100%) [1, 4]: 182 ± 7%; Collagen production amount in comparison with the control group (% value when the control group is 100%) [1, 5]: 209 ± 8%; Collagen production amount in comparison with the control group (% value when the control group is 100%) [1, 6]: 219 ± 29%; activity at 100 µM [2]: 100 to 200%; Residual rate ([3]; storage period 0): ⊚ (⊚: 90% or more); Coloration ([3]; storage period 0, 10 panelists): ◯ (◯: total point of 10 panelists is 25 or more); Odor ([3]; storage period 0, 10 panelists): ◯ (◯: total point of 10 panelists is 25 or more); Residual rate ([3]; storage period 2 weeks): ◯ (◯: 80% or more and less than 90%); Coloration [3, 7]: ◯ (◯: total point of 10 panelists is 25 or more); Odor [3, 7]: ◯ (◯: total point of 10 panelists is 25 or more); Residual rate ([3]; storage period 4 weeks): ◯ (◯: 80% or more and less than 90%); Coloration [3, 8]: ◯ (◯: total point of 10 panelists is 25 or more); Odor [3, 8]: ◯ (◯: total point of 10 panelists is 25 or more)
2 | CCCCCCCCC(O)COC1=C(O)C(=O)O[C@@H]1[C@@H](O)CO (stereo partly drawn) [Example 46] | ++ (40 to 70%:++) | 152 ± 6 | 123 ± 11 | 254 ± 10 | + (100 to 200%:+) | –
3 | CCCCCCCCOCC(O)COC1=C(OCC(O)CO)C(C(O)CO)OC1=O (stereo not drawn) [Example 84] | + (20 to 40%:+) | 135 ± 11 | 154 ± 8 | 201 ± 16 | + (100 to 200%:+) | –
4 | CCCCCCCCC(O)COC1=C(OCC(O)CO)[C@@H]([C@@H](O)CO)OC1=O (stereo partly drawn) [Example 29, 3-O-glyceryl-2-O-(2-hydroxydecyl) ascorbic acid] | + (20 to 40%:+) | 97 ± 19 | 116 ± 7 | 138 ± 3 | – | activity at 100 µM [2]: 100 to 200%
5 | O=C1O[C@H]([C@@H](O)CO)C([O-])=C1OP(=O)([O-])[O-].O=C1O[C@H]([C@@H](O)CO)C([O-])=C1OP(=O)([O-])[O-].[Mg+2].[Mg+2].[Mg+2] [magnesium ascorbyl phosphate, reference compound] | ± (<20%:±) | – | – | – | + (100 to 200%:+) | collagen production promoting effect over time (in words) ([1]; 100 μM or 500 μM, culturing 2, 4 and 7 days): lowers over time; Collagen production amount in comparison with the control group (% value when the control group is 100%) [1, 4]: 276 ± 9%; Collagen production amount in comparison with the control group (% value when the control group is 100%) [1, 5]: 207 ± 24%; Collagen production amount in comparison with the control group (% value when the control group is 100%) [1, 6]: 191 ± 2%
6 | CCCCOCC(O)COC1=C(OCC)C(C(O)CO)OC1=O (stereo not drawn) [Example 97] | + (20 to 40%:+) | 93 ± 4 | 111 ± 4 | 139 ± 15 | + (100 to 200%:+) | –
7 | CCOCC(O)COC1=C(OCC)C(=O)O[C@@H]1[C@@H](O)CO (stereo partly drawn) [Example 66] | + (20 to 40%:+) | – | – | – | + (100 to 200%:+) | –
8 | CCCCCCCCCCCCOCC(O)COC1=C(OCC(O)COCCCC)C(C(O)CO)OC1=O (stereo not drawn) [Example 90] | + (20 to 40%:+) | – | – | – | + (100 to 200%:+) | –
9 | CCCCOCC(O)COC1=C(O)[C@@H]([C@@H](O)CO)OC1=O (stereo partly drawn) [Example 48] | +++ (70 to 100%:+++) | – | – | – | + (100 to 200%:+) | –
10 | 3-O-(2-hydroxydecyl)-2-O-butylglyceryl ascorbic acid [Example 28] | ++ (40 to 70%:++) | – | – | – | + (100 to 200%:+) | –
